Data published in patent publication US20070134261A1, “Effectors of innate immunity” (priority 2001, published 2007).
Read-outs that look alike come from different tables or passages of the source. Marks after values point to notes of the source that are not given here. No end group written: not given here.

How the values were obtained:
[1] = test system: RAW 264.7 mouse macrophage cells; format: cell-based; conditions: Peptide 20 μg/ml; 100 ng/ml E. coli 0111:B4 LPS, 6 h
[2] = test system: HBE cells; experiment: WST-1 assay (cell viability); format: cell-based, human
Method: (§1) The potential toxicity of the peptides was measured in two ways. First, the Cytotoxicity Detection Kit (Roche) (Lactate dehydrogenase-LDH) Assay was used. It is a colorimetric assay for the quantification of cell death and cell lysis, based on the measurement of LDH activity released from the cytosol of damaged cells into the supernatant. LDH is a stable cytoplasmic enzyme present in all cells and it is released into the cell culture supernatant upon damage of the plasma membrane. An increase in the amount of dead or plasma membrane-damaged cells results in an increase of the LDH enzyme activity in the culture supernatant as measured with an ELISA plate reader, OD490 nm (the amount of color formed in the assay is proportional to the number of lysed cells). In this assay, human bronchial epithelial cells (I6HBEo14, HBE) cells were incubated with 100 μg of peptide for 24 hours, the supernatant removed and tested for LDH. The other assay used to measure toxicity of the cationic peptides was the WST-1 assay (Roche). This assay is a colorimetric assay for the quantification of cell proliferation and cell viability, based on the cleavage of the tetrazolium salt WST-1 by mitochondrial dehydrogenases in viable cells (a non-radioactive alternative to the [^3H]-thymidine incorporation assay). In this assay, HBE cells were incubated with 100 μg of peptide for 24 hours, and then 10 μl/well Cell Proliferation Reagent WST-1 was added. The cells are incubated with the reagent and the plate is then measured with an ELISA plate reader, OD490 nm.

[3] = test system: human bronchial epithelial cells (HBE); experiment: LDH release assay (Cytotoxicity Detection Kit); format: cell-based; conditions: 100 μg/ml, 24 hours; no peptide control 1.0 ± 0.05
Method: as §1

[4] = format: cell-based; conditions: for MIC, S. aureus: Staphylococcus aureus
[5] = test system: A549 human epithelial cells; experiment: Induction of chemokines (IL-8, MCP-1) in A549 cells (ELISA); format: cell-based; conditions: peptide 10 ug/ml, 24 hr
Method: The murine macrophage cell line RAW 264.7, THP-1 cells (human monocytes), a human epithelial cell line (A549), human bronchial epithelial cells (16HBEo14), and whole human blood were used. HBE cells were grown in MEM with Earle's. THP-1 cells were grown and maintained in RPMI 1640 medium. The RAW and A549 cell lines were maintained in DMEM supplemented with 10% fetal calf serum. […] DMEM was aspirated from cells grown overnight and replaced with fresh medium. After incubation of the cells with peptide, the release of chemokines into the culture supernatant was determined by ELISA (R&D Systems, Minneapolis, Minn.).

[6] = test system: S. Typhimurium SL1344; experiment: Intracellular survival/replication of S. Typhimurium SL1344 in IFN-γ-primed RAW cells (gentamicin-resistance assay); format: cell-based, Salmonella Typhimurium; conditions: pretreated with inhibitor 30 min prior to infection (50 μM U 0126, 50 μM PD 98059)
[7] = test system: BALB/c mice; experiment: Lethal endotoxemia in galactosamine-sensitized BALB/c mice; format: in vivo; conditions: 2 μg LPS; peptide 200 μg/mouse = 8 mg/kg IP 15 min after LPS; 48 hours; no peptide 10
[8] = test system: Human Jurkat T cells; experiment: SDF-1 induced migration of human Jurkat T cells (Transwell); format: cell-based; conditions: SDF-1 (100 ng/ml) alone, positive control 100%
Method: SDF-1, a C-X-C chemokine is a natural ligand for HIV-1 coreceptor-CXCR4. The chemokine receptors CXCR4 and CCR5 are considered to be potential targets for the inhibition of HIV-1 replication. […] The migration assays were performed as follows. Human Jurkat T cells were resuspended to 5×10^6/ml in chemotaxis medium (RPMI 1640/10 mM Hepes/0.5% BSA). Migration assays were performed in 24 well plates using […] polycarbonate Transwell inserts (Costar). Briefly, peptide or controls were diluted in chemotaxis medium and placed in the lower chamber while 0.1 ml cells (5×10^6/ml) was added to the upper chamber. After 3 hr at 37° C., the number of cells that had migrated into the lower chamber was determined using flow cytometry. The medium from the lower chamber was passed through a FACscan for 30 seconds, gating on forward and side scatter to exclude cell debris. The number of live cells was compared to a “100% migration control” in which 5×10^5/ml cells had been pipetted directly into the lower chamber and then counted on the FACscan for 30 seconds.

Molecule: CC[C@H](C)[C@H](NC(=O)[C@@H](NC(=O)[C@H](CCCNC(=N)N)NC(=O)[C@@H](NC(=O)[C@@H]1CCCN1C(=O)[C@H](CO)NC(=O)[C@H](CCCCN)NC(=O)[C@H](Cc1ccccc1)NC(=O)[C@@H](NC(=O)[C@H](CCCNC(=N)N)NC(=O)[C@H](CC(C)C)NC(=O)[C@H](Cc1ccccc1)NC(=O)[C@H](CO)NC(=O)[C@H](CCCCN)NC(=O)[C@H](Cc1c[nH]c2ccccc12)NC(=O)[C@@H](N)CCCCN)[C@@H](C)O)C(C)C)[C@@H](C)O)C(=O)N[C@@H](Cc1ccccc1)C(=O)N[C@@H](Cc1c[nH]cn1)C(=O)N[C@H](C(=O)N[C@@H](C)C(=O)N[C@@H](CC(C)C)C(=O)N[C@@H](CCCCN)C(=O)N1CCC[C@H]1C(=O)N[C@H](C(=O)N[C@@H](CO)C(=O)N[C@@H](CO)C(=O)O)[C@@H](C)CC)[C@@H](C)O [SEQ ID NO: 47]
- Inhibition of TNF-α [1]: 36.9 ± 2.2%
- OD490 nm (WST-1 cell viability) [2]: 1.14 ± 0.23 OD490 nm
- LDH Release (OD490 nm) [3]: 1.05 ± 0.05 OD490 nm
- MIC, S. aureus ([4]; overnight, 96-well plate): >
- IL-8 [5]: 0.383 ng/mL

Molecule: N#CC(=C(/N)Sc1ccccc1N)/C(C#N)=C(\N)Sc1ccccc1N [U 0126]
- Effect: bacterial filamentation (bacterial stress) [6]: Decrease bacterial filamentation (bacterial stress)^c
- Effect: number of intracellular S. Typhimurium [6]: Increase in the number of intracellular S. Typhimurium

Molecule: DLPAKRGSAPGST (Cationic peptide) [SEQ ID NO: 12, Formula B cationic peptide]
- Inhibition of TNF-α [1]: 52.1 ± 0.38%
- Survival [7]: 17%
- MIC, E. coli ([4]; Escherichia coli, overnight, 96-well plate): >
- MIC, S. aureus ([4]; overnight, 96-well plate): >

Molecule: SDF-1
- Migration (%) ([8]; Experiment 1): 32%
- Migration (%) ([8]; Experiment 2): 40%

Molecule: SLPIKHDRLPATS [SEQ ID NO: 15]
- Inhibition of TNF-α [1]: 69.4 ± 0.84%
- Survival [7]: 0%
- MIC, C. rhod. ([4]; 24 h): 128 µg/mL
- MIC, E. coli ([4]; 24 h): 128 µg/mL
- MIC, EHEC ([4]; 24 h): 64 µg/mL
- MIC, S. aureus ([4]; overnight, 96-well plate): >
